Measured values from paper PMC6753193 (Frontiers in Microbiology, 2019).
Like-named read-outs stand apart in the source and are kept apart here.

How the values were obtained:
[1] = target: PP1:cdNIPP1 (Homo sapiens, UniProt P62136); test: cell-based
[2] = target: PP1:cdNIPP1 helix MUT (Homo sapiens, UniProt P62136); test: cell-based
[3] = test system: HEK293T cells
[4] = test system: EBOV-eGFP; test: microbe, parasite or virus in culture; format: cell-based, Ebola virus; conditions: Zaire ebolavirus, Vero C1008, 48 h, read-out: IC50 EBOV inhibition (virus titer)
[5] = target: PP1:cdNIPP1 RATA (Homo sapiens, UniProt P62136); test: cell-based
[6] = target: PP1 MUT:cdNIPP1 (Homo sapiens, UniProt P62136, A299E/G274E/L73Y/Y70W); test: cell-based
[7] = target: PP1 MUT:cdNIPP1 RATA (Homo sapiens, UniProt P62136, A299E/G274E/L73Y/Y70W); test: cell-based
[8] = 1 h, pH 7.4
[9] = in vitro; conditions: human
[10] = 1 h, pH 7.4; remark: listed apart in the source
[11] = test system: EBOV minigenome; format: cell-based, Ebola virus
[12] = target: WT PP1 (Homo sapiens, UniProt P62136); test: biochemical; format: binding
[13] = target: PP1α (Oryctolagus cuniculus, UniProt P62139); format: biochemical
[14] = target: PP1 (Homo sapiens, UniProt P36873); format: cell-based
[15] = test system: EBOV-eGFP; test: microbe, parasite or virus in culture; format: cell-based, Ebola virus
[16] = 24 h
[17] = target: T1, PP1 (Homo sapiens, UniProt P62136); format: binding
[18] = target: T1, PP1; format: binding; remark: listed apart in the source
[19] = test system: Vero-E6 cells
[20] = in vitro; conditions: mouse, serum
[21] = test system: EBOV; conditions: cited from earlier work
[22] = test system: EBOV VP30; format: cell-based, Ebola virus

Sequence of WT PP1 (P62136 7-300 limits assumed): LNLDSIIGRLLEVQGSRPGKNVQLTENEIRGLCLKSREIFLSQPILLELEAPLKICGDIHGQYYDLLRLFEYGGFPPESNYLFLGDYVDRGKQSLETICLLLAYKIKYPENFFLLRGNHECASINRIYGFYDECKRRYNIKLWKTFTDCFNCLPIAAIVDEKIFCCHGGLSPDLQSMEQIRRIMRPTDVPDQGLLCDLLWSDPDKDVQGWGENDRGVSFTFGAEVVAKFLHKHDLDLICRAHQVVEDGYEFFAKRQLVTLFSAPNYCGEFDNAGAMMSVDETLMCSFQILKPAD
T1 sequence (P62136 7-300 limits assumed): as above
Sequence of PP1:cdNIPP1 (P62136 whole entry, looked up): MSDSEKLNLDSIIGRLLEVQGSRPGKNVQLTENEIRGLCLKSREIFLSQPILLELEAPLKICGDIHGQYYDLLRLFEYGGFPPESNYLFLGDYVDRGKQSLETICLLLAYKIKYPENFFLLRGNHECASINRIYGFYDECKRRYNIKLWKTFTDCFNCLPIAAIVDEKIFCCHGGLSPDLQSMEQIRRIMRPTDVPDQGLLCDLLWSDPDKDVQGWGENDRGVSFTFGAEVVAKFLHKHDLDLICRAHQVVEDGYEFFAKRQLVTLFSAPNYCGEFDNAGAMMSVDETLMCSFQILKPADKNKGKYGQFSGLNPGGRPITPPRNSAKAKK
Sequence of PP1:cdNIPP1 helix MUT (P62136 whole entry, looked up): as above
Sequence of PP1:cdNIPP1 RATA (P62136 whole entry, looked up): as above
Sequence of PP1 MUT:cdNIPP1 RATA (P62136 whole entry Y70W/L73Y/G274E/A299E, looked up): as the sequence (P62136 whole entry, looked up) above, with Y70W, L73Y, G274E, A299E counted along it
Sequence of PP1 MUT:cdNIPP1 (P62136 whole entry Y70W/L73Y/G274E/A299E, looked up): as the sequence (P62136 whole entry, looked up) above, with Y70W, L73Y, G274E, A299E counted along it
Sequence of PP1α (P62139 whole entry, looked up): as the sequence (P62136 whole entry, looked up) above
Sequence of PP1 (Homo sapiens, UniProt P36873) (P36873 whole entry, looked up): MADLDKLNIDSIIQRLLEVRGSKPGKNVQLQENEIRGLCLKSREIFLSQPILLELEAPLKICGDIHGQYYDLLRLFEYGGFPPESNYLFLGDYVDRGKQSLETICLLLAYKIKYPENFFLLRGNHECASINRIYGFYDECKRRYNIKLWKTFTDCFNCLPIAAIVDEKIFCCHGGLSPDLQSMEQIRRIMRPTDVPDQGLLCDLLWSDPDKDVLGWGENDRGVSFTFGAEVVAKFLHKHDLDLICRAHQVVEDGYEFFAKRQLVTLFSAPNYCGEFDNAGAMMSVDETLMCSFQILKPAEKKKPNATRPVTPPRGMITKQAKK

SMILES | IC50 [1] [µM] | IC50 [2] [µM] | effect on cellular viability [3] | IC50 [4] [µM] | IC50 [5] [µM] | IC50 [6] [µM] | IC50 [7] [µM] | remaining in human liver microsomes [8] [%] | CC50 [9] [µM] | remained intact in mouse liver microsomes [10] | Rmax [12] [RU] | further results
CCNC(=O)NC(=O)C(C)OC(=O)c1c2c(nc3ccccc13)/C(=C\c1ccc(OC)c(OC)c1)CC2 (centres unmarked) [1E7-03] | 1.5 | 2.4 | no effect on cellular viability | 7.2 | > 20 | 2.7 | > 20 | 60 | > 300 | over 90% |  | remaining in human serum (10 μM, 37°C, after 24 h): 78%; inhibition of EBOV gene expression (Renilla luciferase) ([11]; 10 μM): strongly inhibit
COc1ccc(C=C2CCc3c2nc2ccccc2c3C(=O)OC(C)C(=O)NC2CC2)cc1OC (centres unmarked) [1E7-07] | 3.7 | 4.3 | no effect on cellular viability | 8.6 | > 20 | 4.5 | > 20 | 90 | > 300 | over 90% | 9.763 | Kd [12]: 0.661 µM; kd [12]: 0.0009566 s⁻¹; kon ([12]; pH 7.4, read-out: ka): 1450 M⁻¹ s⁻¹; effect on PP1 enzymatic activity [13]: no effect; effect on PP1 cellular localization [14]: does not affect; EBOV inhibitory activity (comparison among analogs) [15]: best EBOV inhibitory activity; inhibition at 10 µM ([15]; Zaire ebolavirus, Vero C1008, 72 h, read-out: EBOV inhibitory activity): ~70%; remained in mouse serum [16]: 25%; competition with pRb-Tat peptide binding to PP1 [17]: competed dose-dependently; protection of peptide 75[…]96 from ELNLLB painting [18]: over 90%; recovered peptide signals compared to the control (protection from ELNLLB painting) [18]: over 70%; toxicity (Viral ToxGlo) [19]: no toxicity; remaining in human serum (human, serum, 24 h): no degradation; half-life [20]: 6 h; inhibition of EBOV gene expression (Renilla luciferase) [11]: strongly inhibit
CCNC(=O)NC(=O)C(C)OC(=O)c1c2c(nc3ccccc13)/C(=C\c1cccc([N+](=O)[O-])c1)CCC2 (centres unmarked) [1E7] |  |  |  |  |  |  |  |  |  |  |  | EBOV inhibition [21]: inhibited EBOV
C=C1[C@@H](O)[C@@H]2O[C@]3(CC[C@H](/C=C/[C@@H](C)[C@@H]4CC(C)=C[C@@]5(O[C@H](C[C@@](C)(O)C(=O)O)CC[C@H]5O)O4)O3)CC[C@H]2O[C@@H]1[C@@H](O)C[C@H](C)[C@H]1O[C@@]2(CCCCO2)CC[C@H]1C [okadaic acid] |  |  |  |  |  |  |  |  |  |  |  | increase of VP30 phosphopeptides (Thr-119 and Ser-124) vs DMSO control [22]: 3.3 fold
CC[C@H](C)[C@H](NC(=O)[C@H](Cc1ccccc1)NC(=O)[C@H](CS)NC(=O)[C@@H](NC(=O)[C@H](CCC(N)=O)NC(=O)[C@H](CS)NC(=O)[C@H](Cc1c[nH]cn1)NC(=O)[C@H](Cc1ccccc1)NC(=O)[C@H](CS)NC(=O)[C@H](CS)NC(=O)[C@H](CCCCN)NC(=O)[C@H](CCCCN)NC(=O)[C@H](CCCNC(=N)N)NC(=O)[C@H](CC(C)C)NC(=O)[C@@H]1CCCN1C(=O)[C@H](CO)NC(=O)[C@H](CO)NC(=O)[C@@H]1CCCN1C(=O)[C@H](Cc1ccccc1)NC(=O)[C@H](CCCCN)NC(=O)[C@H](Cc1ccc(O)cc1)NC(=O)[C@@H]1CCCN1C(=O)[C@H](COP(=O)(O)O)NC(=O)[C@H](CCCNC(=N)N)NC(=O)[C@@H]1CCCN1C(=O)[C@@H](NC(=O)[C@@H](N)Cc1c[nH]cn1)[C@@H](C)CC)C(C)C)C(=O)N[C@H](C(=O)N[C@@H](CCCCN)C(=O)O)[C@@H](C)O [pRb-Tat, reference compound] |  |  |  |  |  |  |  |  |  |  | 212.4 | 
